Test results as given in patent publication US20260273110A1, “Radiolabeled Fibroblast Activation Protein Inhibitors and Methods of Making Same” (REGENTS OF THE UNIVERSITY OF MICHIGAN, priority 2023, published 2026).
Read-outs that look alike come from different tables or passages of the source. One block for each molecule: values may come before it.

Columns and labels:
FAP = target: T1, FAP (Homo sapiens, UniProt Q12884); conditions: cited from earlier work; for tumor to kidney ratio: [^177Lu] agent
T1 sequence (Q12884 1-760): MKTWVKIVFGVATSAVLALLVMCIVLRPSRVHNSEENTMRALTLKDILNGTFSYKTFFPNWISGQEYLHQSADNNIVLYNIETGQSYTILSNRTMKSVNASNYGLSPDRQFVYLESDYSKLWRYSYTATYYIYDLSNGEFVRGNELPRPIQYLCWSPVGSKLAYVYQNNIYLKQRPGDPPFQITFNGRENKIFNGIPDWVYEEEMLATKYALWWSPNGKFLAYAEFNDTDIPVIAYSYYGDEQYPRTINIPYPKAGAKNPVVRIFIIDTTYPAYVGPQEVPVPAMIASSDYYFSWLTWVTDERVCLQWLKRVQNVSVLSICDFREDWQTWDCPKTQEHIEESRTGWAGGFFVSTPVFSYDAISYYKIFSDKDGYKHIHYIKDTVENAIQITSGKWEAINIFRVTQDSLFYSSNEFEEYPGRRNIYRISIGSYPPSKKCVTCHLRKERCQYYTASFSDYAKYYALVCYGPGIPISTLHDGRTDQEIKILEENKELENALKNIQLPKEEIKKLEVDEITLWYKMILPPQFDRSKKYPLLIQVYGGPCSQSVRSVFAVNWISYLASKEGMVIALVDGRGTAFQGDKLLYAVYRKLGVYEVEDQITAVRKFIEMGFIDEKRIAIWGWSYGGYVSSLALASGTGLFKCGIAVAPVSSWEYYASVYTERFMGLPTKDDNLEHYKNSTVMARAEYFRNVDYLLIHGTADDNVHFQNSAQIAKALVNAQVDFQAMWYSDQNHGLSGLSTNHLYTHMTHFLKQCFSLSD

[1] = Ib-3 uptake and dosimetry studies in rats; human estimated dosimetry (OLINDA/EXM 2.0); type: in vivo, Sprague-Dawley rats; conditions: estimates of human dosimetry from rat distribution data
Description: Uptake and dosimetry studies of (S)—N-(2-(2-cyanopyrrolidin-1-yl)-2-oxoethyl)-6-fluroquinoline-4-carboxamide (Ib-3) were performed in Sprague-Dawley rats (n=4, 2 males, 2 females) at 10, 20, 60, and 120 min. Rats were anesthetized with isoflurane, and (S)—N-(2-(2-cyanopyrrolidin-1-yl)-2-oxoethyl)-6-fluroquinoline-4-carboxamide (Ib-3) was administered via tail vein injections. At the appropriate time points, animals were euthanized, and their tissues procured for measuring radioactivity. Radioactivity was measured in a well counter and expressed as decay-corrected percentage injected dose per gram of tissue. Radiation dosimetry was calculated from the distribution data and was used to determine estimates of human dosimetry with OLINDA/EXM 2.0 software, or equivalent.
Human estimated dosimetry is given in Table 1, below, in mSv/MBq injected for each organ for males, females, and gender averaged: […]

SMILES: CN(CCCN1CCN(C(=O)CN2CCN(CC(=O)O)CCN(CC(=O)O)CCN(CC(=O)O)CC2)CC1)c1ccc2nccc(C(=O)NCC(=O)N3CC(F)(F)C[C@H]3C#N)c2c1 [FAPI-46]
tumor to background ratio relative to FAP-2286 (FAP; [^68Ga] agent, early time points): 3-5 times | tumor to kidney ratio (FAP; 3 h): 21.0 | tumor to kidney ratio (FAP; 24 hours): 12.7 | tumor to kidney ratio (FAP; 72 h): 8

Human estimated dosimetry: Adrenals ([1]; Females): 1.02E−02 mSv/MBq | Human estimated dosimetry: Brain ([1]; Females): 3.83E−03 mSv/MBq | Human estimated dosimetry: Breasts ([1]; Females): 1.23E−02 mSv/MBq | Human estimated dosimetry: Effective Dose ([1]; Females): 1.39E−02 mSv/MBq | Human estimated dosimetry: Esophagus ([1]; Females): 1.29E−02 mSv/MBq | Human estimated dosimetry: Eyes ([1]; Females): 6.79E−03 mSv/MBq | Human estimated dosimetry: Gallbladder Wall ([1]; Females): 1.64E−02 mSv/MBq | Human estimated dosimetry: Heart Wall ([1]; Females): 1.46E−02 mSv/MBq | Human estimated dosimetry: Kidneys ([1]; Females): 1.48E−02 mSv/MBq | Human estimated dosimetry: Left colon ([1]; Females): 2.18E−02 mSv/MBq | Human estimated dosimetry: Liver ([1]; Females): 9.11E−03 mSv/MBq | Human estimated dosimetry: Lungs ([1]; Females): 9.36E−03 mSv/MBq | Human estimated dosimetry: Osteogenic Cells ([1]; Females): 1.90E−02 mSv/MBq | Human estimated dosimetry: Ovaries ([1]; Females): 1.40E−02 mSv/MBq | Human estimated dosimetry: Pancreas ([1]; Females): 1.19E−02 mSv/MBq | Human estimated dosimetry: Rectum ([1]; Females): 1.94E−02 mSv/MBq | Human estimated dosimetry: Red Marrow ([1]; Females): 1.58E−02 mSv/MBq | Human estimated dosimetry: Right colon ([1]; Females): 1.99E−02 mSv/MBq | Human estimated dosimetry: Salivary Glands ([1]; Females): 1.34E−02 mSv/MBq | Human estimated dosimetry: Small Intestine ([1]; Females): 2.75E−02 mSv/MBq | Human estimated dosimetry: Spleen ([1]; Females): 1.00E−02 mSv/MBq | Human estimated dosimetry: Stomach Wall ([1]; Females): 1.69E−02 mSv/MBq | Human estimated dosimetry: Thymus ([1]; Females): 1.50E−02 mSv/MBq | Human estimated dosimetry: Thyroid ([1]; Females): 1.38E−02 mSv/MBq | Human estimated dosimetry: Total Body ([1]; Females): 1.49E−02 mSv/MBq | Human estimated dosimetry: Urinary Bladder Wall ([1]; Females): 3.42E−02 mSv/MBq | Human estimated dosimetry: Uterus ([1]; Females): 1.49E−02 mSv/MBq | Human estimated dosimetry: Adrenals ([1]; Gender Averaged): 9.65E−03 mSv/MBq | Human estimated dosimetry: Brain ([1]; Gender Averaged): 3.31E−03 mSv/MBq | Human estimated dosimetry: Breasts ([1]; Gender Averaged): 1.23E−02 mSv/MBq | Human estimated dosimetry: Effective Dose ([1]; Gender Averaged): 1.25E−02 mSv/MBq | Human estimated dosimetry: Esophagus ([1]; Gender Averaged): 1.21E−02 mSv/MBq | Human estimated dosimetry: Eyes ([1]; Gender Averaged): 6.09E−03 mSv/MBq | Human estimated dosimetry: Gallbladder Wall ([1]; Gender Averaged): 1.49E−02 mSv/MBq | Human estimated dosimetry: Heart Wall ([1]; Gender Averaged): 1.26E−02 mSv/MBq | Human estimated dosimetry: Kidneys ([1]; Gender Averaged): 1.52E−02 mSv/MBq | Human estimated dosimetry: Left colon ([1]; Gender Averaged): 1.99E−02 mSv/MBq | Human estimated dosimetry: Liver ([1]; Gender Averaged): 8.47E−03 mSv/MBq | Human estimated dosimetry: Lungs ([1]; Gender Averaged): 8.27E−03 mSv/MBq | Human estimated dosimetry: Osteogenic Cells ([1]; Gender Averaged): 1.84E−02 mSv/MBq | Human estimated dosimetry: Ovaries ([1]; Gender Averaged): 1.40E−02 mSv/MBq | Human estimated dosimetry: Pancreas ([1]; Gender Averaged): 1.10E−02 mSv/MBq | Human estimated dosimetry: Prostate ([1]; Gender Averaged): 1.66E−02 mSv/MBq | Human estimated dosimetry: Rectum ([1]; Gender Averaged): 1.78E−02 mSv/MBq | Human estimated dosimetry: Red Marrow ([1]; Gender Averaged): 1.43E−02 mSv/MBq | Human estimated dosimetry: Right colon ([1]; Gender Averaged): 1.82E−02 mSv/MBq | Human estimated dosimetry: Salivary Glands ([1]; Gender Averaged): 1.26E−02 mSv/MBq | Human estimated dosimetry: Small Intestine ([1]; Gender Averaged): 2.59E−02 mSv/MBq | Human estimated dosimetry: Spleen ([1]; Gender Averaged): 9.10E−03 mSv/MBq | Human estimated dosimetry: Stomach Wall ([1]; Gender Averaged): 1.55E−02 mSv/MBq | Human estimated dosimetry: Testes ([1]; Gender Averaged): 7.86E−03 mSv/MBq | Human estimated dosimetry: Thymus ([1]; Gender Averaged): 1.34E−02 mSv/MBq | Human estimated dosimetry: Thyroid ([1]; Gender Averaged): 1.29E−02 mSv/MBq | Human estimated dosimetry: Total Body ([1]; Gender Averaged): 1.37E−02 mSv/MBq | Human estimated dosimetry: Urinary Bladder Wall ([1]; Gender Averaged): 4.15E−02 mSv/MBq | Human estimated dosimetry: Uterus ([1]; Gender Averaged): 1.49E−02 mSv/MBq | Human estimated dosimetry: Adrenals ([1]; Males): 9.10E−03 mSv/MBq | Human estimated dosimetry: Brain ([1]; Males): 2.79E−03 mSv/MBq | Human estimated dosimetry: Effective Dose ([1]; Males): 1.10E−02 mSv/MBq | Human estimated dosimetry: Esophagus ([1]; Males): 1.13E−02 mSv/MBq | Human estimated dosimetry: Eyes ([1]; Males): 5.39E−03 mSv/MBq | Human estimated dosimetry: Gallbladder Wall ([1]; Males): 1.33E−02 mSv/MBq | Human estimated dosimetry: Heart Wall ([1]; Males): 1.06E−02 mSv/MBq | Human estimated dosimetry: Kidneys ([1]; Males): 1.56E−02 mSv/MBq | Human estimated dosimetry: Left colon ([1]; Males): 1.80E−02 mSv/MBq | Human estimated dosimetry: Liver ([1]; Males): 7.83E−03 mSv/MBq | Human estimated dosimetry: Lungs ([1]; Males): 7.17E−03 mSv/MBq | Human estimated dosimetry: Osteogenic Cells ([1]; Males): 1.78E−02 mSv/MBq | Human estimated dosimetry: Pancreas ([1]; Males): 1.00E−02 mSv/MBq | Human estimated dosimetry: Prostate ([1]; Males): 1.66E−02 mSv/MBq | Human estimated dosimetry: Rectum ([1]; Males): 1.62E−02 mSv/MBq | Human estimated dosimetry: Red Marrow ([1]; Males): 1.27E−02 mSv/MBq | Human estimated dosimetry: Right colon ([1]; Males): 1.65E−02 mSv/MBq | Human estimated dosimetry: Salivary Glands ([1]; Males): 1.17E−02 mSv/MBq | Human estimated dosimetry: Small Intestine ([1]; Males): 2.42E−02 mSv/MBq | Human estimated dosimetry: Spleen ([1]; Males): 8.20E−03 mSv/MBq | Human estimated dosimetry: Stomach Wall ([1]; Males): 1.40E−02 mSv/MBq | Human estimated dosimetry: Testes ([1]; Males): 7.86E−03 mSv/MBq | Human estimated dosimetry: Thymus ([1]; Males): 1.18E−02 mSv/MBq | Human estimated dosimetry: Thyroid ([1]; Males): 1.20E−02 mSv/MBq | Human estimated dosimetry: Total Body ([1]; Males): 1.25E−02 mSv/MBq | Human estimated dosimetry: Urinary Bladder Wall ([1]; Males): 4.87E−02 mSv/MBq
SMILES: N#C[C@@H]1CCCN1C(=O)CNC(=O)c1ccnc2ccc([18F])cc12 [Ib-3, (S)—N-(2-(2-cyanopyrrolidin-1-yl)-2-oxoethyl)-6-[18F]fluoroquinoline-4-carboxamide]
